From patent publication US6737383B1, “Herbicidal oxadiazolidines” (priority 1999, dated 2004)

How the values were obtained:
[1] = tested on: blackgrass; assay: Test B pre/postemergence blackgrass; assay type: in vivo, Alopecurus myosuroides
Procedure, shortened: (§1)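 Herbicidal effect was estimated by eye on a ten-point control scale after plants spent twelve to sixteen days in a greenhouse following soil or foliar treatment. Foliar sprays targeted plants at one to four leaves; all doses were formulated in a non-phytotoxic solvent with surfactant.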

[2] = tested on: morningglory; assay: Test B pre/postemergence morningglory; assay type: in vivo, Ipomoea hederacea
Procedure, shortened: as §1

[3] = tested on: smallflower flatsedge; assay: Test B flood test smallflower flatsedge; assay type: in vivo, Cyperus difformis
Procedure, shortened: (§2)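 Each value is a visual injury score relative to controls, with 10 meaning complete control and 0 no effect. Evaluation took place twelve to sixteen days after the 2-leaf-stage plants were treated and kept in the greenhouse.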

[4] = tested on: giant foxtail; assay: Test B pre/postemergence giant foxtail; assay type: in vivo, Setaria faberii
Procedure, shortened: as §1

[5] = tested on: corn; assay: Test B pre/postemergence corn; assay type: in vivo, Zea mays
Procedure, shortened: as §1

[6] = tested on: rice; assay: Test B flood test rice; assay type: in vivo, Oryza sativa
Procedure, shortened: as §2

[7] = tested on: duck salad; assay: Test B flood test duck salad; assay type: in vivo, Heteranthera limosa
Procedure, shortened: as §2

[8] = tested on: purple nutsedge; assay: Test B pre/postemergence purple nutsedge; assay type: in vivo, Cyperus rotundus
Procedure, shortened: as §1

[9] = tested on: rape; assay: Test B pre/postemergence rape; assay type: in vivo, Brassica napus
Procedure, shortened: as §1

[10] = tested on: velvetleaf; assay: Test B pre/postemergence velvetleaf; assay type: in vivo, Abutilon theophrasti
Procedure, shortened: as §1

[11] = tested on: cocklebur; assay: Test B pre/postemergence cocklebur; assay type: in vivo, Xanthium strumarium
Procedure, shortened: as §1

[12] = tested on: wheat; assay: Test B pre/postemergence wheat; assay type: in vivo, Triticum aestivum
Procedure, shortened: as §1

[13] = tested on: crabgrass; assay: Test B pre/postemergence crabgrass; assay type: in vivo, Digitaria sanguinalis
Procedure, shortened: as §1

[14] = tested on: soybean; assay: Test B pre/postemergence soybean; assay type: in vivo, Glycine max
Procedure, shortened: as §1

[15] = tested on: sugar beet; assay: Test B pre/postemergence sugar beet; assay type: in vivo, Beta vulgaris
Procedure, shortened: as §1

[16] = tested on: pigweed; assay: Test B pre/postemergence pigweed; assay type: in vivo, Amaranthus retroflexus
Procedure, shortened: as §1

[17] = Preemergence, Rate 62 g/ha, scale of 0 to 10 where 0 is no effect and 10 is complete control
[18] = Preemergence, Rate 250 g/ha, scale of 0 to 10 where 0 is no effect and 10 is complete control
[19] = Preemergence, Rate 500 g/ha, scale of 0 to 10 where 0 is no effect and 10 is complete control
[20] = Rate 62 g/ha, Postemergence, scale of 0 to 10 where 0 is no effect and 10 is complete control
[21] = Rate 125 g/ha, Postemergence, scale 0 to 10
[22] = Rate 500 g/ha, Postemergence, scale 0 to 10
[23] = Rate 125 g/ha, Preemergence, scale of 0 to 10 where 0 is no effect and 10 is complete control
[24] = Rate 62 g/ha, headed Pre-emergence (flood test species), scale 0 to 10 (0 no effect, 10 complete control)
[25] = Rate 125 g/ha, Pre-emergence, flood test species, scale 0 to 10 where 0 is no effect and 10 is complete control
[26] = Rate 250 g/ha, Pre-emergence, flood-test species, scale 0 to 10, 0 is no effect, 10 is complete control
[27] = Rate 500 g/ha, Pre-emergence, flood test species, scale 0 to 10 (0 no effect, 10 complete control)

CCOC(=O)C=CCn1c(=O)on(C(=O)N(c2ccc(F)cc2)C(C)C)c1=O [Compound 214]
3: Blackgrass plant response rating [1, 18] | Plant response rating, Blackgrass [1, 19] | Morningglory plant response rating [2, 21] | Giant foxtail plant response rating [4, 23] | Plant response rating (0 to 10; 0 is no effect, 10 is complete control), Rape ([9]; Rate 250 g/ha, Postemergence) | Rape plant response rating [9, 22] | Plant response rating (0 to 10; 0 is no effect, 10 is complete control), Wheat ([12]; Rate 250 g/ha, Postemergence) | Crabgrass plant response rating [13, 21] | Plant response rating (0 to 10; 0 is no effect, 10 is complete control), Crabgrass ([13]; Rate 250 g/ha, Postemergence) | Plant response rating (0 to 10; 0 is no effect, 10 is complete control), Soybean ([14]; Rate 250 g/ha, Postemergence) | Soybean plant response rating [14, 22] | Redroot pigweed plant response rating [16, 22]
5: Blackgrass plant response rating [1, 22] | Crabgrass plant response rating [13, 22]
7: Morningglory plant response rating [2, 22]
9: Plant response rating, Redroot pigweed [16, 19]
1: Blackgrass plant response rating [1, 20] | Crabgrass plant response rating [13, 18] | Crabgrass plant response rating [13, 20] | Soybean plant response rating [14, 21] | Plant response rating (0 to 10; 0 is no effect, 10 is complete control), Redroot pigweed ([16]; Rate 250 g/ha, Postemergence)
0: Blackgrass plant response rating [1, 17] | Morningglory plant response rating [2, 17] | Morningglory plant response rating [2, 18] | Plant response rating, Morningglory [2, 19] | Morningglory plant response rating [2, 23] | S. Flatsedge plant response rating [3, 24] | S. Flatsedge plant response rating [3, 25] | S. Flatsedge plant response rating [3, 26] | S. Flatsedge plant response rating [3, 27] | Giant foxtail plant response rating [4, 20] | Giant foxtail plant response rating [4, 21] | Plant response rating (0 to 10; 0 is no effect, 10 is complete control), Giant foxtail ([4]; Rate 250 g/ha, Postemergence) | Corn plant response rating [5, 17] | Corn plant response rating [5, 18] | Plant response rating, Corn [5, 19] | Corn plant response rating [5, 20] | Corn plant response rating [5, 21] | Corn plant response rating [5, 23] | Plant response rating (0 to 10; 0 is no effect, 10 is complete control), Corn ([5]; Rate 250 g/ha, Postemergence) | Corn plant response rating [5, 22] | Rice plant response rating [6, 24] | Rice plant response rating [6, 25] | Rice plant response rating [6, 26] | Rice plant response rating [6, 27] | Ducksalad plant response rating [7, 24] | Ducksalad plant response rating [7, 25] | Ducksalad plant response rating [7, 26] | Ducksalad plant response rating [7, 27] | Nutsedge plant response rating [8, 17] | Nutsedge plant response rating [8, 20] | Nutsedge plant response rating [8, 21] | Plant response rating (0 to 10; 0 is no effect, 10 is complete control), Nutsedge ([8]; Rate 250 g/ha, Postemergence) | Nutsedge plant response rating [8, 22] | Rape plant response rating [9, 17] | Rape plant response rating [9, 18] | Plant response rating, Rape [9, 19] | Rape plant response rating [9, 20] | Rape plant response rating [9, 21] | Rape plant response rating [9, 23] | Velvetleaf plant response rating [10, 17] | Velvetleaf plant response rating [10, 18] | Plant response rating, Velvetleaf [10, 19] | Velvetleaf plant response rating [10, 20] | Velvetleaf plant response rating [10, 21] | Velvetleaf plant response rating [10, 23] | Plant response rating (0 to 10; 0 is no effect, 10 is complete control), Velvetleaf ([10]; Rate 250 g/ha, Postemergence) | Cocklebur plant response rating [11, 17] | Cocklebur plant response rating [11, 18] | Plant response rating, Cocklebur [11, 19] | Cocklebur plant response rating [11, 20] | Cocklebur plant response rating [11, 21] | Cocklebur plant response rating [11, 23] | Plant response rating (0 to 10; 0 is no effect, 10 is complete control), Cocklebur ([11]; Rate 250 g/ha, Postemergence) | Cocklebur plant response rating [11, 22] | Wheat plant response rating [12, 17] | Wheat plant response rating [12, 18] | Plant response rating, Wheat [12, 19] | Wheat plant response rating [12, 20] | Wheat plant response rating [12, 21] | Wheat plant response rating [12, 23] | Crabgrass plant response rating [13, 17] | Crabgrass plant response rating [13, 23] | Soybean plant response rating [14, 17] | Soybean plant response rating [14, 18] | Soybean plant response rating [14, 20] | Soybean plant response rating [14, 23] | Sugarbeets plant response rating [15, 17] | Sugarbeets plant response rating [15, 18] | Plant response rating, Sugarbeets [15, 19] | Sugarbeets plant response rating [15, 20] | Sugarbeets plant response rating [15, 21] | Sugarbeets plant response rating [15, 23] | Plant response rating (0 to 10; 0 is no effect, 10 is complete control), Sugarbeets ([15]; Rate 250 g/ha, Postemergence) | Sugarbeets plant response rating [15, 22] | Redroot pigweed plant response rating [16, 17] | Redroot pigweed plant response rating [16, 20] | Redroot pigweed plant response rating [16, 21] | Redroot pigweed plant response rating [16, 23]
4: Blackgrass plant response rating [1, 21] | Plant response rating (0 to 10; 0 is no effect, 10 is complete control), Blackgrass ([1]; Rate 250 g/ha, Postemergence) | Giant foxtail plant response rating [4, 22] | Plant response rating, Crabgrass [13, 19] | Plant response rating, Soybean [14, 19]
2: Morningglory plant response rating [2, 20] | Giant foxtail plant response rating [4, 17]
6: Plant response rating (0 to 10; 0 is no effect, 10 is complete control), Morningglory ([2]; Rate 250 g/ha, Postemergence) | Giant foxtail plant response rating [4, 18] | Plant response rating, Giant foxtail [4, 19] | Redroot pigweed plant response rating [16, 18]
